Reference: US20230382904A1, “SUBSTITUTED 4-([1,2,4]TRIAZOLO[1,5-a]PYRIDIN-6-YL)THIOPHENE-2-CARBOXAMIDE DERIVATIVES AND USE THEREOF” (The Johns Hopkins University, priority 2020, published 2023)
pIC50: −log10 of the molar value.

What was measured:
[1] = Mouse light damage model (serial OCT and serial ERG); assay type: in vivo; details: versus vehicle
Description: After two weeks (14 days) acclimation in dim light (under 10-30 lux), female BALBc/J (10-12 weeks) were dark-adapted for 24 hrs. All compound injections were done in darkness with din-red light as needed. All mice were placed in light box after applying dilator (tropicamide or phenylephirine) topically. Then light was left on for 4 h with ˜3000 lux followed by dark recovery at the same condition with dark adaptation until any experimental procedure is ready or being placed in dim light condition (under 10-30 lux). Mice were then followed for 3-7 days with OCT, ERG, functional testing, and/or immunohistochemical analysis.

[2] = In vitro PK properties (metabolic stability); assay type: in vitro ADME
Description: Metabolic stabilities in rat hepatocytes were determined by incubating the compounds at low concentrations (e.g., below 1 μM) and at low cell numbers (e.g., at 1×10^6 cells/ml) to ensure linear kinetics. 7 time-points from the incubation mixture were withdrawn for analysis to define the half-life of the compound. From that half-life the intrinsic clearance in hepatocytes was calculated and used further to extrapolate the blood clearance (using the well-stirred model) and the corresponding Fmax value (maximum expected bioavailability after first pass of the liver) for the compounds. The CL and Fmax values reflect Phase I and II metabolism in hepatocytes. To minimize the influence of organic solvents in the incubation mixture their content was limited to max. 1% for ACN or max. 0.2% for DMSO. The values given in row 5 in the table in FIG. 1 are rat hepatocytes CLblood [L/h/kg] and rat hepatocytes Fmax [%].

[3] = tested on: DLK pathway activation; experiment: Mouse optic nerve crush, p-JUN immunoreactivity in RGC layer; assay type: in vivo; details: compared to RGCs treated with the vehicle
Description: Approximately three-month-old male C57BL/6 mice were anesthetized with 100/10 mg/kg of Ketamine/Xylazine followed by topical administration of proparacaine. Under the binocular operating scope, optic nerves were surgically exposed and crushed with Dumont N7 self-closing forceps 1-2 mm behind the globe. A small incision was made at the conjunctiva located at lateral orbit of eye globe using spring scissors. To avoid bleeding from the vasculature, minimum incision was continued until the optic nerve was exposed. After clean exposure, the optic nerve was grasped at approximately 1-2 mm from the globe for 3-7 seconds using the fine micro forceps. After careful removal of the micro forceps, the globe was relocated and Tobramycin was administered. Ten days after nerve crush, eyes were enucleated and fixed and surviving RGC was immunostained for SNCG, RBPMS and βIII-tubulin. The retinas were then imaged with a Nikon Eclipse TE2000-5 fluorescence microscope and Plan-fluor 40 Å˜/0.6 objective. […] RGCs were counted manually from each image. In a separate cohort of animals, optic nerves and retinas were sectioned and stained for phospho-JUN (an indicator of DLK pathway activation) 24 hours after optic nerve crush. Intravitreal injection, optic nerve crush, immunofluorescence, and RGC counting were performed in a masked fashion.

[4] = target: LZK (Homo sapiens (Human), UniProt O43283); experiment: LZK biochemical assay (TR-FRET, MKK7 phosphorylation)
How it was run: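 Catalytic-domain LZK (10 nM) phosphorylated His-MKK7 (15 nM) with 15 μM ATP for 90 min at RT. Phospho-T275/S277 detected by Eu-anti-phospho-MKK7/XL665-anti-His TR-FRET after 16 h at 32° C, using the 665/Eu ratio. Buffer: 50 mM Hepes pH 7.5, 10 mM MgCl2, 1 mM DTT.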

[5] = tested on: primary murine retinal ganglion cells; experiment: Retinal ganglion cell (RGC) viability assay; assay type: cell-based; details: among compounds 4, 19, 94 and 112
Description: The RGC assay detected the viability of primary murine retinal ganglion cells via Cell Titer Glo (Promega), using a previously described assay (Proc. Natl. Acad. Sci. USA. 2013, 110(10), 4045-50), which is incorporated herein by reference in its entirety.
RGCs were freshly isolated from approximately P2 murine retinas by immunopanning using mouse anti-CD90 coated plates. Cells are seeded into poly-D-lysine or laminin coated plates in Neurobasal medium supplemented by 1% Pen/Strep (Gibco 15140-122), 0.01 mg/ml insulin, 1 mM sodium pyruvate, 1% of 100× Sato (400 mg transferrin, 400 mg BSA, 0.25 mg progesterone, 64 mg putrescine, 160 μg sodium selenite in 40 mL Neurobasal medium), 0.04 μg/ml triiodo-thyronine, 2 mM L-glutamine, 0.05 mg/ml N-acetyl cysteine, 10 μM forskolin, 2% 50× B27 (Gibco 17504-044).
For the assay 500-2000 cells per well in a volume of 40 μl were used (384 MTP format). After 72 hours 20 μl Cell Titer Glo reagent was added and viability is measured via luminescent quantitation of ATP. The amount of ATP was directly proportional to the number of cells present in culture.

[6] = In vitro PhysChem properties; assay type: physicochemical

Chain of LZK (O43283 168-409): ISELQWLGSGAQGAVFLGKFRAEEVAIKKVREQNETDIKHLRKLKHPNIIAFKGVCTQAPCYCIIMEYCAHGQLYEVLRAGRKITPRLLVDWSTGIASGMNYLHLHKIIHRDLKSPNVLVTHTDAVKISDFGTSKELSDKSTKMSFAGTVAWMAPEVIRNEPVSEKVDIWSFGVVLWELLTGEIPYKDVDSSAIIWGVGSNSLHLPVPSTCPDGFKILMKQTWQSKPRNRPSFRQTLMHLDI

SMILES: CC[C@H](NC(=O)c1cc(-c2cc(C(=O)N[C@@H](C)CC)c3nc(N)nn3c2)cs1)c1ccc(F)cc1 [Compound 112, 2-Amino-N-[(2S)-butan-2-yl]-6-(5-{[(1S)-1-(4-fluorophenyl)propyl]carbamoyl}thiophen-3-yl)[1,2,4]triazolo[1,5-a]pyridine-8-carboxamide]
- a wave amplitude in photoreceptors ([1]; serial ERG): higher
- b wave amplitude in inner retinal cells ([1]; serial ERG): higher
- outer retinal layer (ORL) thickness ([1]; serial OCT): higher
- metabolic stability [2]: metabolically labile
- p-cJun intensity in the RGCs [3]: decreased
- pIC50 [4]: 7.54
- activity in RGC assay [5]: most active
- chemical stability [6]: chemically stable
